Experiments:
Breast MACL MCF7 = assay: In vitro clonogenic assay (two-layer agar), breast; format: cell-based, human; conditions: continuous exposure, 8-20 days, colony count
Protocol: (§1) In order to determine the activity of the compounds synthesised, solid human tumour xenografts growing subcutaneously in serial passages in thymus aplastic nude mice (Naval Medical Research Institute, USA nu/nu strain) were removed under sterile condition, mechanically disaggregated and subsequently incubated with an enzyme cocktail consisting of collagenase (41 U/ml, Sigma), DNAse I (125 U/ml, Roche), hyaluronidase (1000 U/ml, Sigma) and dispase II (1.0 U/ml) in RPMI 1640-Medium (Life Technologies) at 37° C. for 30 minutes. Cells were passed through sieves of 200 μm and 50 μm mesh size and washed twice with sterile PBS-buffer. The percentage of viable cells was determined in a Neubauer-hemocytometer using trypan blue exclusion. The cells generated were as follows: • Breast MACL MCF7 • […] • Lung 629L • Melanoma MEXF 462NL
(§2) The clonogenic assay was performed in a 24-well format according to a modified two-layer agar assay introduced by Hamburger, A. W. and Salmon, S. E., Science, 197, […] (1977). The bottom layer consisted of 0.2 ml/well of Iscove's Modified Dulbecco's Medium (supplemented with 20% fetal calf serum and 1% gentamicin) and 0.75% agar. 4×10^4 to 8×10^4 cells were added to 0.2 ml of the same culture medium supplemented with 0.4% agar and plated in 24-multiwell dishes onto the bottom layer. The test compounds were applied by continuous exposure (drug overlay) in 0.2 ml culture medium. Each dish included six control wells containing the vehicle and drug treated groups in triplicate at 6 concentrations. Cultures were incubated at 37° C. and 7.5% CO2 in a humidified atmosphere for 8-20 days and monitored closely for colony growth using an inverted microscope. Within this period, in vitro tumour growth led to the formation of colonies with a diameter of >50 μm. At the time of maximum colony formation, counts were performed with an automatic image analysis system (OMNICOM FAS IV, Biosys GmbH). 24 hours prior to evaluation, vital colnies were stained with a sterile aqueous solution of 2-(4-iodophenyl)-3-(4-nitrophenyl)-5-phenyltetrazolium chloride (1 mg/ml, 100 μl/well).
(§3) The IC50 values of the test compounds were determined by plotting compound concentration versus cell viability.

melanoma cell lines = assay: NCI hollow fibre assay, melanoma variation; format: in vivo, human; conditions: 6 cell lines; for IP + SC score: combined score, 10 or more referred for xenograft testing; for IP score: intraperitoneal fibres in mice; for IP score / SC score: drug IP QDx4, 2 doses, 2 points per dose giving 50% or greater reduction in viable cell mass; for SC score: subcutaneous fibres in mice
Text: (§4) The Biological testing Branch of the Developmental Therapeutics Program of the NCI has adopted a preliminary in vivo screening tool for assessing the potential anticancer activity of compounds identified by the large scale in vitro cell screen. For these assays, human tumour cells are cultivated in polyvinylidene (PVDF) hollow fibres, and a sample of each cell line is implanted into each of two physiologic compartments (intraperitoneal and subcutaneaous) in mice. Each test mouse received a total of 6 fibres (3 intraperitoneally and 3 subcutaneously) representing 3 distinct cancer cell lines. These mice are treated with potential antitumour compounds at each of 2 test doses by the intraperitoneal route using a QD×4 treatment schedule. Vehicle controls consist of 6 mice receiving the compound diluent only. The fibre cultures are collected on the day following the last day of treatment. To assess anticancer effects, the viable cell mass is determined for each of the cell lines using a formazyn dye (MTT) conversion assay. From this, the % T/C can be calculated using the average optical density of compound treated samples divided by the average optical; density of the vehicle controls. In addition, the net increase in cell mass can be determined for each sample, as a sample of fibre cultures are assessed for viable cell mass on the day of implantation into mice. Thus, the cytostatic and cytocidal capacities of the test compound can be assessed.
(§5) Generally, each compound is tested against a minimum of 12 human cancer cell lines. This represents a total of 4 experiments since each experiment contains 3 cell lines. The data are reported as % T/C for each of the 2 compound doses against each of the cell lines with separate values calculated for the intraperitoneal and subcutaneous samples.
(§6) Compounds are selected for further in vivo testing in standard subcutaneous xenograft models on the basis of several hollow fibre assay criteria. These include: (1) a % T/C of 50 or less in 10 of the 48 possible test combinations (12 cell lines×2 sites ×2 compound doses); (2) activity at a distance (intraperitoneal drug/subcutaneous culture) in a minimum of 4 of the 24 possible combinations; and/or (3) a net cell kill of 1 or more of the cell lines in either implant site. To simplify evaluation, a points system has been adopted which allows rapid evaluation of the activity of a given compound. For this, a value of 2 is assigned for each compound dose which results in a 50% or greater reduction in viable cell mass. The intraperitoneal and subcutaneous samples are scored separately so that criteria (1) and (2) can be evaluated. Compounds with a combined IP+SC score of 20, a SC score of 8 or a net cell kill of one or more cell lines are referred for xenograft testing. […] In addition to these criteria, other factors (e.g. unique structure, mechanism of action) may result in referral of a compound for xenograft testing without the compound meeting these criteria.
(§7) Certain compounds of the invention were tested in variations of these assays, to assess their activity against renal and melanoma cell lines. In the melanoma assay, only 6 cell lines are used, and therefore compounds with a combined IP+SC score of 10 or a SC score of 4 are referred for xenograft testing. In the renal assay, only three cell lines are used and therefore compounds with a combined IP+SC score of 5 or a SC score of 2 are referred for xenograft testing.

renal cell lines = assay: NCI hollow fibre assay, renal variation; format: in vivo, human; conditions: three cell lines; for IP + SC score: combined score, 5 or more referred for xenograft testing; for IP score: intraperitoneal fibres in mice; for IP score / SC score: drug IP QDx4, 2 doses, 2 points per dose giving 50% or greater reduction in viable cell mass; for SC score: subcutaneous fibres in mice
Text: as §4, §5, §6, §7

Renal RXF 944L = assay: In vitro clonogenic assay (two-layer agar), renal; format: cell-based, human; conditions: continuous exposure, 8-20 days, colony count
Protocol: as §1, §2, §3

Lung 629L = assay: In vitro clonogenic assay (two-layer agar), lung; format: cell-based, human; conditions: continuous exposure, 8-20 days, colony count
Protocol: as §1, §2, §3

Melanoma MEXF 462NL = assay: In vitro clonogenic assay (two-layer agar), melanoma; format: cell-based, human; conditions: continuous exposure, 8-20 days, colony count
Protocol: as §1, §2, §3

[1] = tested on: approximately 60 human tumour cell lines; assay: NCI in vitro cytotoxicity screen (SRB assay); format: cell-based; conditions: GI50 in Moles, 48 hour continuous exposure
Protocol: The National Cancer Institute (NCI), Bethesda, Md. USA has available an in vitro cytotoxicity screen which consists of approximately 60 human tumour cell lines against which compounds are tested at a minimum of five concentrations each differing 10-fold. A 48 hour continuous exposure protocol is used, where cell viability or growth is estimated with an SRB protein assay.
The test compounds were evaluated against approximately 60 human tumour cell lines. The NCI screening procedures were described in detail by Monks and co-workers (Monks, A et al., Journal of the National Cancer Institute, 1991, 83, 757). Briefly, cell suspensions were diluted according to the particular cell type and the expected target cell density (5000-40,000 cells per well based on cell growth characteristics), and added by pipette (100 μL) into 96-well microtitre plates. The cells were allowed a preincubation period of 24 hours at 37° C. for stabilisation. Dilutions at twice the intended test concentration were added at time zero in 100 μL aliquots to the wells. The test compounds were evaluated at five 10-fold dilutions (10^−4, 10^−5, 10^−6, 10^−7 and 10^−[…]). The test compounds were incubated for 48 hours in 5% CO2 atmosphere and 100% humidity. The cells were then assayed using the sulphorhodamine B assay. […]

Row | SMILES | IC50 (Breast MACL MCF7; Homo sapiens) [nM] | IP + SC score (melanoma cell lines) | IP score (melanoma cell lines) | SC score (melanoma cell lines) | IP + SC score (renal cell lines) | IP score (renal cell lines) | SC score (renal cell lines) | IC50 (Renal RXF 944L; Homo sapiens) [nM] | IC50 (Lung 629L; Homo sapiens) [nM] | further results
1 | COc1cc2c(cc1OC)C(=O)N1C=C(c3ccc4ccccc4c3)C[C@H]1C=N2 [Compound 11, (11aS)-1,11a-dihydro-7,8-dimethoxy-2-(2-napthyl)-5H-pyrrolo[2,1-c][1,4]benzodiazepin-5-one] | 0.22 |  |  |  |  |  |  |  |  | 
2 | COc1cc2c(cc1OC)C(=O)N1C=C(c3ccc(C(C)(C)C)cc3)C[C@H]1C=N2 [Compound 13, (11aS)-1,11a-dihydro-7,8-dimethoxy-2-(4-tert-butylbenzene)-5H-pyrrolo[2,1-c][1,4]benzodiazepin-5-one] |  | 6 | 2 | 4 | 6 | 4 | 2 |  |  | IC50 (Breast MACL MCF7): 0.26 nM
3 | COc1cc2c(cc1OC)C(=O)N1C=C(c3ccc(Cl)cc3)C[C@H]1C=N2 [Compound 15, (11aS)-1,11a-dihydro-7,8-dimethoxy-2-(4-chlorobenzene)-5H-pyrrolo[2,1-c][1,4]benzodiazepin-5-one] | 0.15 |  |  |  |  |  |  |  |  | 
4 | COc1cc2c(cc1OC)C(=O)N1C=C(c3ccc(F)cc3)C[C@H]1C=N2 [Compound 17, (11aS)-1,11a-dihydro-7,8-dimethoxy-2-(4-fluorobenzene)-5H-pyrrolo[2,1-c][1,4]benzodiazepin-5-one] |  |  |  |  |  |  |  | 0.17 |  | 
5 | COc1cc2c(cc1OC)C(=O)N1C=C(c3ccccc3C)C[C@H]1C=N2 [Compound 19, (11aS)-1,11a-dihydro-7,8-dimethoxy-2-(2-methylbenzene)-5H-pyrrolo[2,1-c][1,4]benzodiazepin-5-one] | 0.35 | 8 | 4 | 4 |  |  |  |  | 1 | 
6 | CCc1ccc(C2=CN3C(=O)c4cc(OC)c(OC)cc4N=C[C@@H]3C2)cc1 [Compound 21, (11aS)-1,11a-dihydro-7,8-dimethoxy-2-(4-ethylbenzene)-5H-pyrrolo[2,1-c][1,4]benzodiazepin-5-one] |  | 10 | 10 | 0 |  |  |  |  |  | IC50 (Breast MACL MCF7): < 0.1 nM; IC50 (Lung 629L): 0.36 nM; IC50 (Renal RXF 944L): < 0.1 nM; IC50 (Melanoma MEXF 462NL): < 0.1 nM
7 | COc1cc2c(cc1OC)C(=O)N1C=C(c3cccs3)C[C@H]1C=N2 [Compound 23, (11aS)-1,11a-dihydro-7,8-dimethoxy-2-(2-thiophene)-5H-pyrrolo[2,1-c][1,4]benzodiazepin-5-one] | 0.35 |  |  |  |  |  |  |  |  | MG_MID (average log GI50 across all cell lines tested) [1]: −6.34
8 | COc1cc2c(cc1OC)C(=O)N1C=C(c3ccco3)C[C@H]1C=N2 [Compound 25, (11aS)-1,11a-dihydro-7,8-dimethoxy-2-(2-furan)-5H-pyrrolo[2,1-c][1,4]benzodiazepin-5-one] |  |  |  |  |  |  |  |  |  | MG_MID (average log GI50 across all cell lines tested) [1]: −7.18
9 | COc1cc2c(cc1OC)C(=O)N1C=C(c3c(C)cccc3C)C[C@H]1C=N2 [Compound 27, (11aS)-1,11a-dihydro-7,8-dimethoxy-2-(2,6-dimethylbenzene)-5H-pyrrolo[2,1-c][1,4]benzodiazepin-5-one] |  |  |  |  | 8 | 4 | 4 |  |  | 
10 | COc1cc2c(cc1OC)C(=O)N1C=C(c3ccccc3)C[C@H]1C=N2 [Compound C1, reference compound] | 19.3 | 4 | 4 | 0 | 0 | 0 | 0 | 20.5 | 44.5 | IC50 (Melanoma MEXF 462NL; Homo sapiens): 40 nM
11 | COc1ccc(C2=CN3C(=O)c4cc(OC)c(OC)cc4N=C[C@@H]3C2)cc1 [Compound C2] | 1.96 |  |  |  |  |  |  | 1.5 | 5 | IC50 (Melanoma MEXF 462NL; Homo sapiens): 2.85 nM
12 | COc1cc2c(cc1OC)C(=O)N1C=C(c3ccc(C)cc3)C[C@H]1C=N2 [Compound C3, reference compound] | 1.59 | 2 | 0 | 2 | 2 | 2 | 0 | 0.89 | 8 | IC50 (Melanoma MEXF 462NL; Homo sapiens): 2 nM

From patent publication US7407951B2, “Pyrrolobenzodiazepines” (Spirogen Limited, priority 2002, dated 2008)
